Assay results published in ChEMBL document CHEMBL1132949, “Conceptually new 20-epi-22-oxa sulfone analogues of the hormone 1alpha,25-dihydroxyvitamin D(3): synthesis and biological evaluation” (2000).

What was measured:
MCF7 = test: In vitro activity on human breast adenocarcinoma cell line MCF-7 proliferation; format: functional; details: read-out: ED50 (the source's name)
[1] = biological target: T1, Vitamin D3 receptor (Homo sapiens) (UniProt P11473); test: Binding affinity to Vitamin D3 receptor relative to 1,25D3
T1 sequence (whole entry): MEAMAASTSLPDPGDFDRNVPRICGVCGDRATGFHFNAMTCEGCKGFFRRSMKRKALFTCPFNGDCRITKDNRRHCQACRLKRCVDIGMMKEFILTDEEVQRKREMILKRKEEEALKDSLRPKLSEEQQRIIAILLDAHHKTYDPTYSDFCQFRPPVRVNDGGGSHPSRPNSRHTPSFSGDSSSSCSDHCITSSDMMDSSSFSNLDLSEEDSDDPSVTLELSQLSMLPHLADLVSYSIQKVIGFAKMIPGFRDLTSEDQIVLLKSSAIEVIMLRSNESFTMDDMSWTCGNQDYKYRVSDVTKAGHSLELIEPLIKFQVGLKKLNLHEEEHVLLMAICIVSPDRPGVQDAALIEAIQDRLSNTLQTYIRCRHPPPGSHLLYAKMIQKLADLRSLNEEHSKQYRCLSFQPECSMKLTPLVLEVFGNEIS

PBMC = test: In vitro inhibition of phytohemagglutininin-induced stimulation of human peripheral blood mononuclear cells proliferation; format: functional; details: read-out: ED50 (the source's name)
[2] = In vitro vitamin D receptor (VDR)-mediated transcriptional potency in rat osteosarcoma ROS 17/2.8 cells; format: functional; details: read-out: ED50 (the source's name)

Row | Compound | EC50 (MCF7) [nM] | Binding affinity [1] [%] | EC50 (PBMC) [nM] | EC50 [2] [nM]
1 | C=C1/C(=C\C=C2/CCC[C@]3(C)[C@@H]([C@@H](C)OCCCC(O)(CC)CC)CC[C@@H]23)C[C@@H](O)C[C@@H]1O [LEXACALCITOL] | 0.27 | – | – | –
2 | C=C1/C(=C\C=C2/CCC[C@]3(C)[C@@H]([C@@H](C)OCCCS(=O)(=O)C(C)(C)C)CC[C@@H]23)C[C@H](O)C[C@H]1O | 9.6 | 26 | 8.4 | 1.6
3 | C=C1/C(=C\C=C2/CCC[C@]3(C)[C@@H]([C@@H](C)OCCCS(=O)(=O)C(C)(C)C)CC[C@@H]23)C[C@@H](O)C[C@@H]1O | – | 0.4 | – | > 100
